# Legend:
# [1] = molecular target: T1, 5-hydroxytryptamine receptor 7 (Homo sapiens, UniProt P34969); assay: Displacement of [3H]LSD from 5-HT7 receptor (unknown origin) expressed in CHO-K1 cells by liquid scintillation counting method; type: cell-based
# [2] = molecular target: T1, 5-hydroxytryptamine receptor 7; assay: Displacement of [3H]LSD from 5-HT7 receptor (unknown origin) expressed in CHO-K1 cells at 10 uM by liquid scintillation counting method; type: cell-based
# Mus musculus = assay: Antidepressant activity in ICR mouse assessed as immobility time at 50 mg/kg, iv administered 30 mins before testing by forced swim test (reference value: 159.1 sec); type: functional
# [3] = molecular target: 5-hydroxytryptamine receptor 1D (Homo sapiens, UniProt P28221); assay: Binding affinity to recombinant 5-HT1D receptor (unknown origin) after 1.5 hrs by radioligand displacement assay
# Homo sapiens [4] = species on record: Homo sapiens; assay: Selectivity index, ratio of Ki for recombinant 5-HT2C receptor (unknown origin) to Ki for recombinant 5-HT7 receptor (unknown origin)
# Homo sapiens [5] = species on record: Homo sapiens; assay: Selectivity index, ratio of Ki for recombinant 5-HT2B receptor (unknown origin) to Ki for recombinant 5-HT7 receptor (unknown origin)
# [6] = molecular target: 5-hydroxytryptamine receptor 2B (Homo sapiens, UniProt P41595); assay: Binding affinity to recombinant 5-HT2B receptor (unknown origin) after 1.5 hrs by radioligand displacement assay
# [7] = molecular target: T2, 5-hydroxytryptamine receptor 2C (Homo sapiens, UniProt P28335); assay: Binding affinity to recombinant 5-HT2C receptor (unknown origin) after 1.5 hrs by radioligand displacement assay
# T2 sequence (P28335 whole entry): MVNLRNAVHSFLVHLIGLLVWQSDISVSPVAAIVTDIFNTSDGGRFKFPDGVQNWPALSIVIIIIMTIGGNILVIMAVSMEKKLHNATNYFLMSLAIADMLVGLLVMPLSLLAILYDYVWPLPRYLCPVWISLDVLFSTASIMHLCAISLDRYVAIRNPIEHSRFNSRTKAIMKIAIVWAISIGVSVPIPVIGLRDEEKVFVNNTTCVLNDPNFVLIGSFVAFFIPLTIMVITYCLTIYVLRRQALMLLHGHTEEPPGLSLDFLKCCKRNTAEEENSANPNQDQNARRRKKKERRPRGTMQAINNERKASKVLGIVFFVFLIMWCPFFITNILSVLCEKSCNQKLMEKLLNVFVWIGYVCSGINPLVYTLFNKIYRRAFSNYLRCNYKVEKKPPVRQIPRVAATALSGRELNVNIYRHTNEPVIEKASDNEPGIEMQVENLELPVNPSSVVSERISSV
# [8] = molecular target: T3, 5-hydroxytryptamine receptor 3A (Homo sapiens) (UniProt P46098); assay: Binding affinity to recombinant 5-HT3 receptor (unknown origin) at 10 uM after 1.5 hrs by radioligand displacement assay
# T3 sequence (whole entry): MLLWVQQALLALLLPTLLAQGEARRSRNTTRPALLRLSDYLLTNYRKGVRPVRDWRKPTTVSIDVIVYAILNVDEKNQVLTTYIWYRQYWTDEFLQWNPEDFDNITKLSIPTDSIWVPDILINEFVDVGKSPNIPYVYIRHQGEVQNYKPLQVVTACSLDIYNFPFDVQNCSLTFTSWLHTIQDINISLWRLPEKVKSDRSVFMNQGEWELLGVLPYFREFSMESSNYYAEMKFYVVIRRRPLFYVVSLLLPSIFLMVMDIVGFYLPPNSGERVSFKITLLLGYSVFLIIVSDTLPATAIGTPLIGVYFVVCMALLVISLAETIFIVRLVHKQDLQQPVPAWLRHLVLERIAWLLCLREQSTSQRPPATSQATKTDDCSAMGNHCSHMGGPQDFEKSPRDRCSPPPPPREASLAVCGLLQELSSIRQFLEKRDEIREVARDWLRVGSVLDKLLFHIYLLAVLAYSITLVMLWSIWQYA
# Homo sapiens [9] = species on record: Homo sapiens; assay: Selectivity index, ratio of Ki for recombinant 5-HT5 receptor (unknown origin) to Ki for recombinant 5-HT7 receptor (unknown origin)
# [10] = molecular target: 5-hydroxytryptamine receptor 5A (Homo sapiens, UniProt P47898); assay: Binding affinity to recombinant 5-HT5 receptor (unknown origin) after 1.5 hrs by radioligand displacement assay
# Homo sapiens [11] = species on record: Homo sapiens; assay: Selectivity index, ratio of Ki for recombinant 5-HT1D receptor (unknown origin) to Ki for recombinant 5-HT7 receptor (unknown origin)
# [12] = molecular target: T4, 5-hydroxytryptamine receptor 6 (Homo sapiens, UniProt P50406); assay: Binding affinity to recombinant 5-HT6 receptor (unknown origin) after 1.5 hrs by radioligand displacement assay
# Homo sapiens [13] = species on record: Homo sapiens; assay: Selectivity index, ratio of Ki for recombinant 5-HT1A receptor (unknown origin) to Ki for recombinant 5-HT7 receptor (unknown origin)
# [14] = molecular target: T5, 5-hydroxytryptamine receptor 1B (Homo sapiens, UniProt P28222); assay: Binding affinity to recombinant 5-HT1B receptor (unknown origin) at 10 uM after 1.5 hrs by radioligand displacement assay
# [15] = molecular target: T6, 5-hydroxytryptamine receptor 2A (Homo sapiens, UniProt P28223); assay: Binding affinity to recombinant 5-HT2A receptor (unknown origin) after 1.5 hrs by radioligand displacement assay
# Homo sapiens [16] = species on record: Homo sapiens; assay: Selectivity index, ratio of Ki for recombinant 5-HT6 receptor (unknown origin) to Ki for recombinant 5-HT7 receptor (unknown origin)
# [17] = molecular target: T7, 5-hydroxytryptamine receptor 1A (Homo sapiens, UniProt P08908); assay: Binding affinity to recombinant 5-HT1A receptor (unknown origin) after 1.5 hrs by radioligand displacement assay
# T7 sequence (P08908 whole entry): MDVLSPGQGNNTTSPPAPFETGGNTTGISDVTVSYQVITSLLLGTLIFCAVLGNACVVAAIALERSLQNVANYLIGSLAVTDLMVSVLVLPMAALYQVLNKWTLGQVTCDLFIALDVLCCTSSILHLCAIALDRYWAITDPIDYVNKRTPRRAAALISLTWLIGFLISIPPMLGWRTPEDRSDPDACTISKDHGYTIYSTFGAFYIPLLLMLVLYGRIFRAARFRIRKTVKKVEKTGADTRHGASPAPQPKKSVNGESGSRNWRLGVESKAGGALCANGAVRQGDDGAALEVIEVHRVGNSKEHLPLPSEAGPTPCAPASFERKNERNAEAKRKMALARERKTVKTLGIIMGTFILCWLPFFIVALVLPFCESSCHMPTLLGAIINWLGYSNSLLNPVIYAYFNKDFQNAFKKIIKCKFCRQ
# [18] = molecular target: T5, 5-hydroxytryptamine receptor 1B; assay: Binding affinity to recombinant 5-HT1B receptor (unknown origin) after 1.5 hrs by radioligand displacement assay
# [19] = molecular target: T4, 5-hydroxytryptamine receptor 6; assay: Binding affinity to recombinant 5-HT6 receptor (unknown origin) at 10 uM after 1.5 hrs by radioligand displacement assay
# [20] = molecular target: T1, 5-hydroxytryptamine receptor 7; assay: Binding affinity to recombinant 5-HT7 receptor (unknown origin) after 1.5 hrs by radioligand displacement assay
# [21] = molecular target: T6, 5-hydroxytryptamine receptor 2A; assay: Binding affinity to recombinant 5-HT2A receptor (unknown origin) at 10 uM after 1.5 hrs by radioligand displacement assay
# T5 sequence (P28222 whole entry): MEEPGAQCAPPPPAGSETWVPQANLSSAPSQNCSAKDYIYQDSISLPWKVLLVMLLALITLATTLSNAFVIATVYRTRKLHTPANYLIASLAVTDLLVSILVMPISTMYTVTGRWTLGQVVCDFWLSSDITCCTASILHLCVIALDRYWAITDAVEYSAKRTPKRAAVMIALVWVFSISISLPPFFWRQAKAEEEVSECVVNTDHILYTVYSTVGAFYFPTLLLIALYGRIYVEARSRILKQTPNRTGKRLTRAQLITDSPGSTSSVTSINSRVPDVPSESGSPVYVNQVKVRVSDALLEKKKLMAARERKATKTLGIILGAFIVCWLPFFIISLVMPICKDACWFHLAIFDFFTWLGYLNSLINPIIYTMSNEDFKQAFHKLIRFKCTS
# T6 sequence (P28223 whole entry): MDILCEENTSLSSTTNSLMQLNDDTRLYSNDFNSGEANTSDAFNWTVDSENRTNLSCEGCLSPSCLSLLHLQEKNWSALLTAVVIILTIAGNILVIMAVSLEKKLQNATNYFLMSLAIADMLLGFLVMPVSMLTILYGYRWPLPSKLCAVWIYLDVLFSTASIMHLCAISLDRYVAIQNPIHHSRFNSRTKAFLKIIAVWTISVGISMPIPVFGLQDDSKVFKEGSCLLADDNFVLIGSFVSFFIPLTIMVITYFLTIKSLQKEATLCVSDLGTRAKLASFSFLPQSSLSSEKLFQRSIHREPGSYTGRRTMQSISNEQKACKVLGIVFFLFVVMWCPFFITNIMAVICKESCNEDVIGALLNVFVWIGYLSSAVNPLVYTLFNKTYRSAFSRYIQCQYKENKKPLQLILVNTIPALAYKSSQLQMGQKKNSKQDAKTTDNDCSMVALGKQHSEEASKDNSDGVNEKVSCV
# T1 sequence (P34969 whole entry): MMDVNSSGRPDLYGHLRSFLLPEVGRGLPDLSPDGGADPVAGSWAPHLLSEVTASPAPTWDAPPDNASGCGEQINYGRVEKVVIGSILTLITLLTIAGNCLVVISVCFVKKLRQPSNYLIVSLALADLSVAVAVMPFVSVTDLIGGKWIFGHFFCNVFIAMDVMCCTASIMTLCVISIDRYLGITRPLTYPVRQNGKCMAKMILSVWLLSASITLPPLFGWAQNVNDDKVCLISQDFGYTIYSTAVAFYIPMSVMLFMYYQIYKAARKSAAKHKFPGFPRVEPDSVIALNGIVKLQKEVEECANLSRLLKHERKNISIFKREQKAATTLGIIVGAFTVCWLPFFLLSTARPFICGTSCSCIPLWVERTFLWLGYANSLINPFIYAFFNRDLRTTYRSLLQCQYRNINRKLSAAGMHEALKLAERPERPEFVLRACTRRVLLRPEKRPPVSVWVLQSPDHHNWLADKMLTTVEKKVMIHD
# 5-hydroxytryptamine receptor 2B, sequence (P41595 whole entry): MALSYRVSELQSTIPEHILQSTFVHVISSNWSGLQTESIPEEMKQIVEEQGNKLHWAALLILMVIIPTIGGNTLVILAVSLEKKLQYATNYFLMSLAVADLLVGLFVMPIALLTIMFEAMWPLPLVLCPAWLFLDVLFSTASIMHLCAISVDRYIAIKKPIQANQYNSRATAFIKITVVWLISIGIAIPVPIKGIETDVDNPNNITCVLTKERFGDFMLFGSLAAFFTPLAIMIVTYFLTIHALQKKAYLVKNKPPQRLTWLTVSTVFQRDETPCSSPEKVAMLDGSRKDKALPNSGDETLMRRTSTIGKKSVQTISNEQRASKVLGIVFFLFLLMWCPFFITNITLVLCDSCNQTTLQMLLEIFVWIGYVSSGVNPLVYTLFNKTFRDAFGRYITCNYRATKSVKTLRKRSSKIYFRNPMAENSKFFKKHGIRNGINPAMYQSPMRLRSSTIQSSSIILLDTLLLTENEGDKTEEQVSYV
# T4 sequence (P50406 whole entry): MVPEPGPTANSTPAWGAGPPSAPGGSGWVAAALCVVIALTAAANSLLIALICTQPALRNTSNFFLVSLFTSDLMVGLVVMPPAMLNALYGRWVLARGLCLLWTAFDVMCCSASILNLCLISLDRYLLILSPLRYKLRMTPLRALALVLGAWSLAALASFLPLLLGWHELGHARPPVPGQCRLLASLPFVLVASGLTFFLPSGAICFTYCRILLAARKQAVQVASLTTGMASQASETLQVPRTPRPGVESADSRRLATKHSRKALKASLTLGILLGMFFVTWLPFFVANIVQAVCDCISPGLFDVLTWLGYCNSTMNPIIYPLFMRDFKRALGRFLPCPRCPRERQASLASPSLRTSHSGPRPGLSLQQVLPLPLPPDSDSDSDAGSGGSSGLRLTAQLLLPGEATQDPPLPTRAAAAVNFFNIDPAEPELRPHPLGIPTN
# 5-hydroxytryptamine receptor 1D, sequence (P28221 whole entry): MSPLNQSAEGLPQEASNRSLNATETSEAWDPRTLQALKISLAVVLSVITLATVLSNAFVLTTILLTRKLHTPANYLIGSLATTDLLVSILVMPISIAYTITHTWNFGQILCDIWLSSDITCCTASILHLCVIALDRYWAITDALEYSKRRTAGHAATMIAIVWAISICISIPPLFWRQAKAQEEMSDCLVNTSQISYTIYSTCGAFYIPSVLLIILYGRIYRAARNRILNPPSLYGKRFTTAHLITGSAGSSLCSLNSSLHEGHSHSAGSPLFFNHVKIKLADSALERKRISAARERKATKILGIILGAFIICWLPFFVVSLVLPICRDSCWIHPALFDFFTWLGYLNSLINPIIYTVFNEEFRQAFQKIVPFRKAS
# 5-hydroxytryptamine receptor 5A, sequence (P47898 whole entry): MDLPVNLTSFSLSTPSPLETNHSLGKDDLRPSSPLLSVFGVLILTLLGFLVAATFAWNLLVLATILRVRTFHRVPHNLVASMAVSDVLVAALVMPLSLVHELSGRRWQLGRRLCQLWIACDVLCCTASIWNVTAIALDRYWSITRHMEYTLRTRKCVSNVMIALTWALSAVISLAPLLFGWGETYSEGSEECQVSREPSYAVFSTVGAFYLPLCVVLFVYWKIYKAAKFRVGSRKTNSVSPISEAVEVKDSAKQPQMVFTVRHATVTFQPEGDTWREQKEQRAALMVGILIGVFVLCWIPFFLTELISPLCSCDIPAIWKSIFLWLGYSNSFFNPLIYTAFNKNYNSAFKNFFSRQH
structure (smiles),measurement,setting,value
CC1CC(C)CN(CCCCCC(=O)n2c3ccccc3c3ccccc32)C1 (stereo unspecified),Ki,[1],833 nM
O=C(CCCCN1CCOCC1)n1c2ccccc2c2ccccc21,inhibition,[2],47%
CC(=O)N1CCN(CCCCC(=O)n2c3ccccc3c3ccccc32)CC1,Ki,[1],1070 nM
CC1CCN(CCCCC(=O)n2c3ccccc3c3ccccc32)CC1,Ki,[1],592 nM
CNCCC(Oc1ccc(C(F)(F)F)cc1)c1ccccc1 (stereo unspecified) [FLUOXETINE],Time,Mus musculus,83.9 s
O=C(CCCCN1CCCC1)n1c2ccccc2c2ccccc21,Ki,[1],2160 nM
CN1CCN(CCCCCC(=O)n2c3ccccc3c3ccccc32)CC1,Ki,[1],1910 nM
O=C(CCCCN1CCN(c2ccccc2O)CC1)n1c2ccccc2c2ccccc21,Ki,[3],1400 nM
same,Ratio Ki,Homo sapiens [4],18
same,Ratio Ki,Homo sapiens [5],0.97
same,Ki,[6],83 nM
same,Ki,[7],1520 nM
same,Ki,[1],86 nM
same,inhibition,[8],41%
same,Ratio Ki,Homo sapiens [9],3.9
same,Ki,[10],337 nM
same,Ratio Ki,Homo sapiens [11],16
same,Ki,[12],879 nM
same,Ratio Ki,Homo sapiens [13],0.26
same,inhibition,[14],37%
same,Ki,[15],257 nM
same,Ratio Ki,Homo sapiens [16],10
same,Ki,[17],22 nM
O=C(CCCCCN1CCCCCC1)n1c2ccccc2c2ccccc21,Ki,[1],616 nM
CC1CCCN(CCCCCC(=O)n2c3ccccc3c3ccccc32)C1 (stereo unspecified),Ki,[1],550 nM
CN(CCCCC(=O)n1c2ccccc2c2ccccc21)Cc1ccccc1,Ki,[1],513 nM
CC1CC(C)CN(CCCCC(=O)n2c3ccccc3c3ccccc32)C1 (stereo unspecified),Ki,[1],1400 nM
COc1ccccc1N1CCN(CCCCC(=O)n2c3ccccc3c3ccccc32)CC1,Ki,[3],462 nM
same,Ratio Ki,Homo sapiens [4],39
same,Ratio Ki,Homo sapiens [5],3.1
same,Ki,[6],93 nM
same,Ki,[7],1170 nM
same,Ki,[18],3740 nM
same,Ki,[1],30 nM
same,inhibition,[8],24%
same,inhibition,[19],44%
same,Ratio Ki,Homo sapiens [9],0.17
same,Ki,[10],5 nM
same,Ki,[20],30 nM
same,Ratio Ki,Homo sapiens [11],15
same,Ratio Ki,Homo sapiens [13],4.1
same,Ki,[15],451 nM
same,Ki,[17],122 nM
O=C(CCCCN1CCCCCC1)n1c2ccccc2c2ccccc21,Ki,[1],949 nM
O=C(CCCCN1CCC(Cc2ccccc2)CC1)n1c2ccccc2c2ccccc21,Ki,[1],312 nM
O=C(CCCCCN1CCC(c2ccccc2)CC1)n1c2ccccc2c2ccccc21,Ki,[1],157 nM
CC(=O)N1CCN(CCCCCC(=O)n2c3ccccc3c3ccccc32)CC1,Ki,[1],2340 nM
O=C(CCCCCN1CCN(c2ccccc2O)CC1)n1c2ccccc2c2ccccc21,Ki,[3],28 nM
same,Ratio Ki,Homo sapiens [4],37
same,Ratio Ki,Homo sapiens [5],2.7
same,inhibition,[21],13%
same,Ki,[6],101 nM
same,Ki,[7],1390 nM
same,Ki,[1],38 nM
same,inhibition,[8],41%
same,Ratio Ki,Homo sapiens [9],25
same,Ki,[10],933 nM
same,Ki,[20],38 nM
same,Ratio Ki,Homo sapiens [11],0.74
same,Ki,[12],595 nM
same,Ratio Ki,Homo sapiens [13],3.9
same,inhibition,[14],48%
same,Ratio Ki,Homo sapiens [16],16
same,Ki,[17],148 nM
O=C(CCCCCN1CCCC1)n1c2ccccc2c2ccccc21,Ki,[1],1050 nM
O=C(CCCCN1CCC(c2ccccc2)CC1)n1c2ccccc2c2ccccc21,Ki,[1],153 nM
O=C(CCCCCN1CCC(Cc2ccccc2)CC1)n1c2ccccc2c2ccccc21,Ki,[1],252 nM
CCCCN(C)CCCCCC(=O)n1c2ccccc2c2ccccc21,Ki,[1],680 nM
O=C(CCCCCN1CCOCC1)n1c2ccccc2c2ccccc21,Ki,[1],1310 nM
CCCCN(C)CCCCC(=O)n1c2ccccc2c2ccccc21,Ki,[1],1280 nM
CN1CCN(CCCCC(=O)n2c3ccccc3c3ccccc32)CC1,inhibition,[2],40%
